Assay results published in article PMC6120666 (The EMBO Journal, 2018).
Each block holds one molecule with its values, some of them ahead of it.

Key:
NOD2/HEKBlue cells = experiment: hNOD2-HEKBlue L18-MDP-induced NF-κB reporter assay; format: cell-based, human; details: for IC50: Homo sapiens, HEK-Blue, L18-MDP-induced NF-κB reporter, average ± SD of at least three titrations
Protocol: For HEKBlue assay, cells were seeded into clear 96‐well plates at 7.5 × 10^3 cells/well and allowed to attach for 48 h. On the day of the experiment, media was changed to 100 μl of HEKBlue detection media (InvivoGen). Inhibitors were diluted and added in 0.5 μl DMSO 15 min prior to the addition of 1 ng/ml L18‐MDP (InvivoGen). After 8–9 h, absorbance at 620 nm was measured using Victor3V plate reader (Perkin Elmer, Waltham, MA). Values of media‐only wells were subtracted and %inhibition for each compound concentration relative to the DMSO/L18‐MDP‐treated controls was calculated. Inhibition values ± SD were fitted by non‐linear regression using Prism software (GraphPad Software, La Jolla, CA) to calculate IC50 values. For THP1Blue assay, 1 × 10^5 cells were seeded in 200 μl of RPMI media in 96‐well plates and treated with inhibitors in 0.5 μl DMSO for 15 min prior to the addition of 10 μg/ml MDP, 10 ng/ml Pam3CSK4, 10 ng/ml E. coli LPS, or 1 × 10^7 cells/ml heat‐killed L. monocytogenes (InvivoGen) for 24 h. After induction, 20 μl of media was mixed with 180 μl of QUANTI‐Blue reagent (InvivoGen) and incubated at 37°C for 3–4 h, followed by absorbance measurement at 620 nm. IC50 values were calculated as described for HEKBlue assay.
Cayman Chemical Company, Ann Arbor, MI), GSK583 (#HY-100339, MedChem Express, South Brunswick, NJ), WEHI-345 (MedKoo Biosciences, Morrisville, NC), Compound A (CpA, a kind gift from TetraLogic Pharmaceuticals, Malvern, PA). Generation of the CSLP compound series is described in Suebsuwong et al. 2018 (manuscript in preparation). hNOD2-HEKBlue and THP1Blue assays
For HEKBlue assay, cells were seeded into clear 96 well plates at 7.5x10^3 cells/well and allowed to attach for 48 h. On the day of the experiment, media was changed to 100 μl of HEKBlue detection media (InvivoGen). Inhibitors were diluted and added in 0.5 μl DMSO 15 min prior to the addition of 1 ng/ml L18-MDP (InvivoGen). After 8-9 h, absorbance at 620 nm was measured using Victor3V plate reader (Perkin Elmer, Waltham, MA). Values of media-only wells were subtracted and %inhibition for each compound concentration relative to the DMSO/L18-MDP-treated controls were calculated.
Inhibition values + StDev were fitted by non-linear regression using Prism software (GraphPad Software, La Jolla, CA) to calculate IC50 values. For THP1Blue assay, 1x10^5 cells were seeded in 200 μl of RPMI media in 96 well plates and treated with inhibitors in 0.5 μl DMSO 15 min prior to the addition of 10 µg/ml MDP, 10 ng/ml Pam3CSK4, 10 ng/ml E. coli LPS or 1x10^7 cells/ml heat-killed L. monocytogenes (InvivoGen) for 24 h. After induction, 20 μl of media was mixed with 180 μl of QUANTI-Blue reagent (InvivoGen) and incubated at 37 °C for 3-4 h, followed by absorbance measurement at 620 nm. IC50 values were calculated as described for HEKBlue assay. […]

NanoLuc-RIPK2 = biological target: T1, NanoLuc-RIPK2 (Homo sapiens, UniProt O43353); experiment: nanoBRET cellular RIPK2 residence time assay in HEKBlue cells; format: binding; details: t1/2 for probe to engage RIPK2 after washout of inhibitor
T1 construct: host or cells: hNOD2-HEKBlue cells

THP1Blue cells, NOD1 = experiment: THP1Blue NF-κB-SEAP reporter assay, TriDAP (NOD1); format: cell-based; details: Homo sapiens; TriDAP 10 μg/ml; read-out: THP1-Blue NF-κB Inhibition IC50 (TriDAP)
U2OS/NOD2 cells = experiment: Intracellular flow cytometry of CXCL8 after L18-MDP; format: cell-based, human; details: L18-MDP 200 ng/ml, 4 h; for inhibition of NOD2 signaling (CXCL8) in cells expressing RIPK2 T95W: U2OS/NOD2 RIPK2 KO cells reconstituted with T95W gatekeeper mutant; for L18-MDP-induced CXCL8 production: U2OS/NOD2 cells
Protocol: Purified material and lysates were analyzed by immunoblotting. […] Numbering below schematic refers to amino acid residues in human RIPK2 and indicate domain boundaries. […] Data information: Data in (A, B, D, H) represent the mean ± SEM of 2–4 independent experiments, each performed in duplicate. […] Two‐way ANOVA was used to determine statistical significance. See also Fig EV1.Source data are available online for this figure.
Dark gray represents areas occupied by RIPK2; white areas indicate empty spaces in CSLP binding pocket. […] Dotted black box indicates region shown for models with CSLP37 and CSLP43. • Molecular docking model of RIPK2 kinase domain in complex with CSLP43 (green) based on RIPK2/CSLP18 structure from (D). […] Two‐way ANOVA was used to determine statistical significance. See also Fig EV2.
GST-BIR2-XIAP as indicated. Intensity quantification of SPOTs was performed using ImageJ software
Dual luciferase reporter assay
Intracellular flow cytometry of CXCL8
for cell death) or vehicle for 24h. Viability was determined using the CellTiter-Glo® luminescent cell
together with Transfection Carrier DNA (Promega).
After addition of Nano-Glo

[1] = test system: RIPK2 ubiquitination in U2OS/NOD2 and THP-1 cells; experiment: Purification of Ub-conjugates (TUBE pulldown), RIPK2 ubiquitination; format: cell-based, human; details: U2OS/NOD2 or THP-1 cells, L18-MDP 200 ng/ml, 1 h
Protocol: For co‐immunoprecipitation of HA‐XIAP with RIPK2, transfected and treated cells were lysed in TBS buffer containing 0.5% NP‐40, cOmplete and PhosSTOP inhibitors (Roche) and the lysate was cleared by centrifugation. The lysates were incubated with anti‐HA‐agarose overnight, washed 3× with lysis buffer, and analyzed by immunoblotting. For GST pulldown experiments, U2OS/NOD2 cells were lysed in TBS lysis buffer containing 0.5% NP‐40, cOmplete and PhosSTOP inhibitors (Roche). Cleared lysates were pretreated with kinase inhibitors or DMSO and incubated with GST‐XIAP‐BIR2 bound to Glutathione Sepharose at 4°C overnight. Bound material was washed 3× with lysis buffer or PBS, eluted with 15 mM Glutathione in PBS, and analyzed by immunoblotting. […] The bound material was eluted and analyzed as described above. […]
PBS, eluted with 15 mM Glutathione in PBS and analyzed by immunoblotting. […]

T1 sequence (O43353 whole entry): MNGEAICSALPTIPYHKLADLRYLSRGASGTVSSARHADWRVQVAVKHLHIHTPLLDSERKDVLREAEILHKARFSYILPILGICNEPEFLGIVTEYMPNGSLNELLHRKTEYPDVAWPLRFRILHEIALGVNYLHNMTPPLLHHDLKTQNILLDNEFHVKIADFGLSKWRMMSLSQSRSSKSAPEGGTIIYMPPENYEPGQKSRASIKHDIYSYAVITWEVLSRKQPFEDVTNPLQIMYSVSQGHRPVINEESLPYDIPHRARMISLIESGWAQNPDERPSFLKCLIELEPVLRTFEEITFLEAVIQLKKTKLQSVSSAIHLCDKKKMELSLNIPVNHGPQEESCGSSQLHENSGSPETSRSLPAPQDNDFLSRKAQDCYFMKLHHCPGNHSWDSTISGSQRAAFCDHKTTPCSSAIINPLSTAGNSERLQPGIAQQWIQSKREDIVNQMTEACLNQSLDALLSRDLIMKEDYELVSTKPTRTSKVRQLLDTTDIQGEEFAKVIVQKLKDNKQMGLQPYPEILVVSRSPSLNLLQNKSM

SMILES: CCCS(=O)(=O)Nc1cc(-c2cc(-c3ccc(N4CCNCC4)cc3)cnc2N)cc(OC)c1OC [CSLP43]
- IC50 (NOD2/HEKBlue cells): 1.3 ± 0.4 nM
- residence time (NanoLuc-RIPK2): 107 min
- IC50 (THP1Blue cells, NOD1): 1.43 ± 0.1 nM
- inhibition of NOD2 signaling (CXCL8) in cells expressing RIPK2 T95W (U2OS/NOD2 cells): no longer observed
- L18-MDP-induced CXCL8 production (U2OS/NOD2 cells): potent suppression
- RIPK2 ubiquitination after L18-MDP [1]: inhibited RIPK2 ubiquitination

SMILES: COc1cc(-c2cc(-c3ccc(N4CCNCC4)cc3)cnc2N)cc(F)c1OC [CSLP55]
- IC50 (NOD2/HEKBlue cells): 595 ± 69.6 nM
- residence time (NanoLuc-RIPK2): 6.8 min
- inhibition of NOD2 signaling (CXCL8) in cells expressing RIPK2 T95W (U2OS/NOD2 cells): not negatively impacted
- RIPK2 ubiquitination after L18-MDP [1]: little or no effect

SMILES: CCCS(=O)(=O)Nc1cc(-c2cc(-c3ccc(N4CCNCC4)cc3)cnc2N)cc(F)c1OC [CSLP37]
- IC50 (NOD2/HEKBlue cells): 26.3 ± 3.7 nM
- residence time (NanoLuc-RIPK2): 27.1 min
- IC50 (THP1Blue cells, NOD1): 20.8 ± 1.2 nM
- inhibition of NOD2 signaling (CXCL8) in cells expressing RIPK2 T95W (U2OS/NOD2 cells): no longer observed
- L18-MDP-induced CXCL8 production (U2OS/NOD2 cells): potent suppression
- RIPK2 ubiquitination after L18-MDP [1]: inhibited RIPK2 ubiquitination

More lines, main results first:

- residence time (NanoLuc-RIPK2): 127 min
SMILES: CCCS(=O)(=O)Nc1cc(-c2cc(-c3ccc(N4CCNCC4)cc3)cnc2N)ccc1O [CSLP48]
- IC50 (NOD2/HEKBlue cells): > 5000 nM
- inhibition of NOD2 signaling (CXCL8) in cells expressing RIPK2 T95W (U2OS/NOD2 cells): not negatively impacted
- RIPK2 ubiquitination after L18-MDP [1]: little or no effect

- residence time (NanoLuc-RIPK2): 7.5 min
SMILES: Cc1ccc(-c2nn(C(C)(C)CNC(=O)c3ccncc3)c3ncnc(N)c23)cc1 [WEHI‐345, reference compound]
- IC50 (NOD2/HEKBlue cells): 3370 nM
- fold lower cellular potency than against RIPK2 kinase in vitro (NOD2/HEKBlue cells; Table 1, Fig 4A): > 10 fold
